In US7468369B2, “Sulfonyl pyrrolidines, method for producing the same and their use as drugs” (Sanofi-Aventis, priority 2005, dated 2008):
Structures can show the parent of a compound that is named as a salt. Where two headings read alike, the source gives them in different places.

Tested on: human ABCA1 promoter
Assay: ABCA1 promoter test (luciferase reporter in stably transfected THP1 cell line)
Assay type: cell-based
Conditions: Homo sapiens, read-out: E50 ABCA1
Protocol: The potency of substances which activate expression of the human ABCA1 gene via its promoter is analyzed by using a stably transfected THP1 cell line (human monocyte cell line) which is referred to herein as ABCA1 reporter cell line. It contains a fragment, 3.2 kb in size and stably integrated into the genome, of the human ABCA1 promoter in front of a luciferase reporter element. Expression of the luciferase reporter gene is only low without addition of an ABCA1 expression activator. The substances stimulating ABCA1 expression bring about, via activation of the ABCA1 promoter, an enhanced expression of the luciferase reporter gene. The luciferase which is formed can be detected via an appropriate substrate by means of chemiluminescence.
Construction of the Cell Line
The ABCA1 reporter line was prepared as follows: firstly the neomycin resistance gene (Acc. No.: AJ000156) was introduced into the luciferase reporter plasmid pLG3basic (#1751, Promega) 3′ below the luciferase reporter element. Subsequently, an ABCA1 promoter fragment, 3.2 kb in size and amplified from human genomic DNA (#6550-1, Clontech) by the polymerase chain reaction, was cloned in 5′ above the luciferase reporter element. The reporter plasmid produced in this way was called pGL3BN-ABCA1P. Luciferase expression in this plasmid is controlled by the ABCA1 promoter. Cloning and sequencing of the construct took place in analogy to the description in Sambrook J et al. (Molecular cloning, Cold Spring Harbor Laboratory Press, 1989). For stable transfection into THP1 cells, firstly pGL3BN-ABCA1P was linearized with a restriction endonuclease and then introduced into the THP1 cells as stated in Ausubel, F. M. et al. (Current protocols in molecular biology, Vol. 1-3, John Wiley & Sons, Inc., 1995).
The activity of ABCA1 expression activators is determined in a 3-day test which is described below:
The ABCA1 reporter cell line comprises suspension cells. These are cultured until the concentration is 0.5×10^6 cells/ml in RPMI medium (#52400-025, Invitrogen) which is mixed with the following additions: 10% FCS (fetal calf serum; #16000-044, invitrogen), 0.5 mg/ml Geneticin (#10131-019, invitrogen) and 1% penicillin-streptomycin solution (#15140-122, invitrogen). The culturing takes place in standard cell culture flasks (#353112, Becton Dickinson) in a cell culture incubator at 37° C. in the presence of 5% CO2.
For the ABCA1 promoter test, the suspension cells are centrifuged at 1200 rpm in 50 ml tubes. The supernatant is aspirated off, and the pellet is resuspended in 15 ml of RPMI medium and counted in a cell counter. After dilution to 175 000 cells/ml, 0.1 μg/ml PMA (phorbol 12-myristate 13-acetate, #8139-5MG, Sigma) is added in order to induce differentiation of the monocytic THP1 suspension cells into adherent macrophages. 35 000 cells in each well are seeded in a 96-well microtiter plate with clear plastic base (#3610, Corning Costar). The plates are incubated in a cell culture incubator at 37° C. and 5% CO2 for 24 h.
The ABCA1 expression activators to be tested are dissolved in a concentration of 10 mM in DMSO. This stock solution is diluted in the RPMI medium (mixed with 0.1 μg/ml PMA) described above. Test substances are tested in 11 different concentrations in the range from […] to 330 pM. The medium of the ABCA1 reporter cell line seeded on day 1 is completely removed by aspiration and the diluted test substances are immediately added to the cells. The dilution and addition of the substances takes place with a pipetting robot (Beckman FX). The final volume of the test substances diluted in medium is 100 μl per well of a 96-well microtiter plate. The DMSO concentration in the test is less than 0.1% v/v in order to avoid cytotoxic effects of the solvent.
The test plates are incubated in an incubator at 37° C. and 5% CO2 for 24 h.
The ABCA1 reporter cells treated with the test substances are removed from the incubator and the medium is aspirated off. […]

[1] = THP-1, ABCA1 reporter cell line (THP1, PMA-differentiated), 24 h incubation, luciferase chemiluminescence

| SMILES | EC50 [1] | EC50 (THP-1, 24 h) |
| --- | --- | --- |
| COc1cccc(S(=O)(=O)N2C[C@@H](C(=O)N3CCN(c4cc(C)ccc4C)CC3)[C@H](c3ccc4c(c3)OCO4)C2)c1 [Example 88, [3,4-trans-4-Benzo[1,3]dioxol-5-yl-1-(3-methoxybenzenesulfonyl)pyrrolidin-3-yl]-[4-(2,5-dimethylphenyl)piperazin-1-yl]methanone trifluoroacetate] | 2720 nM | – |
| COc1ccc(OC)c(N2CCN(C(=O)[C@@H]3CN(S(=O)(=O)c4cccc(C)c4)C[C@H]3c3ccccc3)CC2)c1 [Example 80, [4-2,5-Dimethoxyphenyl)piperazin-1-yl]-[3,4-trans-4-phenyl-1-(toluene-3-sulfonyl)pyrrolidin-3-yl]methanone trifluoroacetate] | 3150 nM | – |
| Cc1ccc(N2CCN(C(=O)[C@@H]3CN(S(=O)(=O)c4cc(Br)c(Br)s4)C[C@H]3c3ccccc3)CC2)cc1C (racemic) [Example 43, [1-(4,5-Dibromothiophene-2-sulfonyl)-3,4-trans-4-phenylpyrrolidin-3-yl]-[4-(3,4-dimethylphenyl)piperazin-1-yl]methanone] | 4080 nM | – |
| Cc1cccc(N2CCN(C(=O)[C@@H]3CN(S(=O)(=O)c4cc(Br)c(Br)s4)C[C@H]3c3ccccc3)CC2)c1C (racemic) [Example 53, [1-(4,5-Dibromothiophene-2-sulfonyl)-3,4-trans-4-phenylpyrrolidin-3-yl]-[4-(2,3-dimethylphenyl)piperazin-1-yl]methanone] | 5760 nM | – |
| COc1cccc(S(=O)(=O)N2C[C@@H](C(=O)N3CCN(c4cc(C)ccc4C)CC3)[C@H](c3ccoc3)C2)c1 [Example 114, [4-(2,5-Dimethylphenyl)piperazin-1-yl]-[3,4-trans-4-furan-3-yl-1-(3-methoxybenzenesulfonyl)pyrrolidin-3-yl]methanone trifluoroacetate] | 2140 nM | – |
| Cc1ccc(N2CCN(C(=O)[C@@H]3CN(S(=O)(=O)c4cccs4)C[C@H]3c3ccccc3)CC2)c(C)c1 (racemic) [Example 36, [4-(2,4-Dimethylphenyl)piperazin-1-yl]-[3,4-trans-4-phenyl-1-(thiophene-2-sulfonyl)pyrrolidin-3-yl]methanone] | 3600 nM | – |
| COc1cccc(S(=O)(=O)N2C[C@@H](C(=O)N3CCN(c4cc(C)ccc4C)CC3)[C@H](C(C)C)C2)c1 [Example 96, [4-(2,5-Dimethylphenyl)piperazin-1-yl]-[3,4-trans-4-isopropyl-1-(3-methoxy-benzenesulfonyl)pyrrolidin-3-yl]methanone trifluoroacetate] | 3600 nM | – |
| Cc1ccc(N2CCN(C(=O)[C@@H]3CN(S(=O)(=O)c4cc(Br)c(Br)s4)C[C@H]3c3ccccc3)CC2)c(C)c1 (racemic) [Example 37, [1-(4,5-Dibromothiophene-2-sulfonyl)-3,4-trans-4-phenylpyrrolidin-3-yl]-[4-(2,4-dimethylphenyl)piperazin-1-yl]methanone] | 2570 nM | – |
| Cc1cccc(N2CCN(C(=O)[C@@H]3CN(S(=O)(=O)c4cccs4)C[C@H]3c3ccccc3)CC2)c1C (racemic) [Example 52] | 3270 nM | – |
| Cc1ccc(C)c(N2CCN(C(=O)[C@@H]3CN(S(=O)(=O)c4c(C)noc4C)C[C@H]3c3ccsc3)CC2)c1 [Example 111, [1-(3,5-Dimethylisoxazole-4-sulfonyl)-3,4-trans-4-thiophen-3-ylpyrrolidin-3-yl]-[4-(2,5-dimethylphenyl)piperazin-1-yl]methanone trifluoroacetate] | 867 nM | – |
| Cc1ccc(N2CCN(C(=O)[C@@H]3CN(S(=O)(=O)c4cc(Cl)c(Cl)s4)C[C@H]3c3ccccc3)CC2)cc1C (racemic) [Example 45] | 4620 nM | – |
| Cc1ccc(C)c(N2CCN(C(=O)[C@@H]3CN(S(=O)(=O)c4c(C)noc4C)C[C@H]3Cc3ccccc3)CC2)c1 [Example 93, [3,4-trans-4-Benzyl-1-(3,5-dimethylisoxazole-4-sulfonyl)pyrrolidin-3-yl]-[4-(2,5-dimethylphenyl)piperazin-1-yl]methanone trifluoroacetate] | 2480 nM | – |
| COc1ccc(N2CCN(C(=O)[C@@H]3CN(S(=O)(=O)c4ccc(Cl)s4)C[C@H]3c3ccccc3)CC2)cc1 (racemic) [Example 60, [1-(5-Chlorothiophene-2-sulfonyl)-3,4-trans-4-phenylpyrrolidin-3-yl]-[4-(4-methoxyphenyl)piperazin-1-yl]methanone] | 6680 nM | – |
| Cc1ccccc1S(=O)(=O)N1C[C@@H](C(=O)N2CCN(c3cc(Cl)ccc3Cl)CC2)[C@H](c2ccccc2)C1 [Example 85, [[4-(2,5-Dichlorophenyl)piperazin-1-yl]-[3,4-trans-4-phenyl-1-(toluene-2-sulfonyl)pyrrolidin-3-yl]methanone trifluoroacetate] | 260 nM | – |
| Cc1ccc(C)c(N2CCN(C(=O)[C@@H]3CN(S(=O)(=O)c4cccc5nonc45)C[C@H]3c3ccccc3)CC2)c1 [Example 68, [1-(Benzene[1,2,5-oxadiazol-4-sulfonyl)-3,4-trans-4-phenylpyrrolidin-3-yl]-[4-(2,5-dimethylphenyl)piperazin-1-yl]methanone trifluoroacetate] | 869 nM | – |
| O=C([C@@H]1CN(S(=O)(=O)c2cc(Br)c(Br)s2)C[C@H]1c1ccccc1)N1CCN(c2cccc(C(F)(F)F)c2)CC1 (racemic) [Example 31, [1-(4,5-Dibromothiophene-2-sulfonyl)-3,4-trans-4-phenylpyrrolidin-3-yl]-[4-(3-trifluoromethylphenyl)piperazin-1-yl]methanone] | 1770 nM | – |
| COc1cccc(S(=O)(=O)N2C[C@@H](C(=O)N3CCN(c4cc(C)ccc4C)CC3)[C@H](c3ccccc3C)C2)c1 [Example 99, [4-(2,5-Dimethylphenyl)piperazin-1-yl]-[1-(3-methoxybenzenesulfonyl)-3,4-trans-4-o-tolylpyrrolidin-3-yl]methanone trifluoroacetate] | 707 nM | – |
| COc1ccc(S(=O)(=O)N2C[C@@H](C(=O)N3CCN(c4cc(OC)ccc4OC)CC3)[C@H](c3ccccc3)C2)cc1 [Example 79, [4-(2,5-Dimethoxyphenyl)piperazin-1-yl]-[1-(4-methoxybenzenesulfonyl)-3,4-trans-4-phenylpyrrolidin-3-yl]methanone trifluoroacetate] | 1580 nM | – |
| Cc1ccc(C)c(N2CCN(C(=O)[C@H]3CN(S(=O)(=O)c4cccs4)C[C@H]3c3ccccc3)CC2)c1 (racemic) [Example 117, [4-(2,5-Dimethylphenyl)piperazin-1-yl]-[3,4-cis-4-phenyl-1-(thiophene-2-sulfonyl)pyrrolidin-3-yl]methanone] | – | 291 nM |
| Cc1ccc(C)c(N2CCN(C(=O)[C@@H]3CN(S(=O)(=O)c4cccnc4)C[C@H]3c3ccoc3)CC2)c1 [Example 116, [4-(2,5-Dimethylphenyl)piperazin-1-yl]-[3,4-trans-4-furan-3-yl-1-(pyridine-3-sulfonyl)pyrrolidin-3-yl]methanone trifluoroacetate] | 10800 nM | – |
| Cc1ccc(C)c(N2CCN(C(=O)[C@H]3CN(S(=O)(=O)c4cccnc4)C[C@H]3c3ccccc3)CC2)c1 [Example 120, [4-(2,5-Dimethylphenyl)piperazin-1-yl]-[3,4-cis-4-phenyl-1-(pyridine-3-sulfonyl)pyrrolidin-3-yl]methanone trifluoroacetate] | 395 nM | – |
| COc1cccc(S(=O)(=O)N2C[C@@H](Cc3ccccc3)[C@H](C(=O)N3CCN(c4cc(C)ccc4C)CC3)C2)c1 [Example 94, [3,4-trans-4-Benzyl-1-(3-methoxybenzenesulfonyl)pyrrolidin-3-yl]-[4-(2,5-dimethylphenyl)piperazin-1-yl]methanone trifluoroacetate] | 2930 nM | – |
